Measurements taken from patent US20170190671A1, “BIS(ARYL)CATECHOL DERIVATIVES AS HERBICIDES” (E I DU PONT DE NEMOURS AND COMPANY, priority 2014, published 2017).

How the values were obtained:
[1] = tested on: barnyardgrass (Echinochloa crus-galli); experiment: Test C preemergence; format: in vivo; settings: Echinochloa crus-galli, pre-emergence, read-out: Plant response rating, Barnyardgrass
In short: (§1)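 Steps: plant seeds in loam-sand soil and treat preemergence, or grow plants in peat-based medium to 2-18 cm and spray; compound formulated in non-phytotoxic solvent/surfactant; hold in greenhouse 13-15 days; score visually versus controls from 0 (no effect) to 100 (complete control).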

[2] = tested on: pigweed (Amaranthus retroflexus); experiment: Test C preemergence; format: in vivo; settings: Amaranthus retroflexus, pre-emergence, 336 h, scale 0 to 100, read-out: Plant response rating, Pigweed
In short: as §1

[3] = tested on: winter wheat (Triticum aestivum); experiment: Test C preemergence; format: in vivo; settings: Triticum aestivum, pre-emergence, 336 h, scale 0 to 100, read-out: Plant response rating, Wheat
In short: as §1

[4] = tested on: johnsongrass (Sorghum halepense); experiment: Test C preemergence; format: in vivo; settings: Sorghum halepense, pre-emergence, 336 h, scale 0 to 100, read-out: Plant response rating, Johnsongrass
In short: as §1

[5] = tested on: waterhemp (common waterhemp, Amaranthus rudis); experiment: Test C preemergence; format: in vivo; settings: Amaranthus tuberculatus, pre-emergence, scale 0 to 100, read-out: Plant response rating, Waterhemp
In short: as §1

[6] = tested on: velvetleaf (Abutilon theophrasti); experiment: Test C preemergence; format: in vivo; settings: Abutilon theophrasti, pre-emergence, scale 0 to 100, read-out: Plant response rating, Velvetleaf
In short: as §1

[7] = tested on: Italian ryegrass (Lolium multiflorum); experiment: Test C preemergence; format: in vivo; settings: Lolium multiflorum, pre-emergence, 336 h, scale 0 to 100, read-out: Plant response rating, Ryegrass, Italian
In short: as §1

corn (Zea mays) = experiment: Test C preemergence; format: in vivo; settings: Zea mays, pre-emergence, 336 h, scale 0 to 100
In short: as §1

[8] = tested on: ragweed (common ragweed, Ambrosia elatior); experiment: Test C preemergence; format: in vivo; settings: Ambrosia artemisiifolia, pre-emergence, 336 h, scale 0 to 100, read-out: Plant response rating, Ragweed
In short: as §1

[9] = tested on: oilseed rape (Brassica napus); experiment: Test C preemergence; format: in vivo; settings: Brassica napus, pre-emergence, scale 0 to 100, read-out: Plant response rating, Oilseed Rape
In short: as §1

[10] = tested on: blackgrass (Alopecurus myosuroides); experiment: Test C preemergence; format: in vivo; settings: Alopecurus myosuroides, pre-emergence, 336 h, scale 0 to 100, read-out: Plant response rating, Blackgrass
In short: as §1

soybean (Glycine max) = experiment: Test C preemergence; format: in vivo; settings: Glycine max, pre-emergence, scale 0 to 100, read-out: Plant response rating, Soybean
In short: as §1

[11] = tested on: giant foxtail (Setaria faberii); experiment: Test C preemergence; format: in vivo; settings: Setaria faberi, pre-emergence, 336 h, scale 0 to 100, read-out: Plant response rating, Foxtail, Giant
In short: as §1

[12] = tested on: morningglory (Ipomoea coccinea); experiment: Test C preemergence; format: in vivo; settings: Ipomoea, pre-emergence, 336 h, scale 0 to 100, read-out: Plant response rating, Morningglory
In short: as §1

[13] = tested on: large (Lg) crabgrass (Digitaria sanguinalis); experiment: Test C preemergence; format: in vivo; settings: Digitaria sanguinalis, pre-emergence, 336 h, scale 0 to 100, read-out: Plant response rating, Crabgrass, Large
In short: as §1

wild oat (Avena fatua) = experiment: Test C postemergence; format: in vivo; settings: Avena fatua, post-emergence, Postemergence, scale 0 to 100, read-out: Plant response rating, Oat, Wild
[14] = tested on: pigweed (Amaranthus retroflexus); experiment: Test C postemergence; format: in vivo; settings: Amaranthus retroflexus, post-emergence, 336 h, Postemergence, scale 0 to 100, read-out: Plant response rating, Pigweed
[15] = tested on: chickweed (common chickweed, Stellaria media); experiment: Test C postemergence; format: in vivo; settings: Stellaria media, post-emergence, Postemergence, scale 0 to 100, read-out: Plant response rating, Chickweed
[16] = tested on: waterhemp (common waterhemp, Amaranthus rudis); experiment: Test C postemergence; format: in vivo; settings: Amaranthus tuberculatus, post-emergence, Postemergence, scale 0 to 100, read-out: Plant response rating, Waterhemp
kochia (Kochia scoparia) = experiment: Test C postemergence; format: in vivo; settings: Bassia scoparia, post-emergence, Postemergence, scale 0 to 100, read-out: Plant response rating, Kochia
[17] = tested on: galium (catchweed bedstraw, Galium aparine); experiment: Test C postemergence; format: in vivo; settings: Galium, post-emergence, 336 h, Postemergence, scale 0 to 100, read-out: Plant response rating, Galium
[18] = tested on: yellow nutsedge (Cyperus esculentus); experiment: Test C postemergence; format: in vivo; settings: Cyperus, post-emergence, 336 h, Postemergence, scale 0 to 100, read-out: Plant response rating, Nutsedge, Yellow

## Fc1ccc(F)c(Oc2ncc(Cl)cn2)c1Oc1ncc(Cl)cn1 [Compound 34, 2,2′-[(3,6-difluoro-1,2-phenylene)bis(oxy)]bis[5-chloropyrimidine]]
other
  melting point: 158 to 161 °C
[1]; 31 g ai/ha, preemergence, scale 0 to 100
  pest or weed control at 31 g/ha: 55%
[1]; 62 g ai/ha, preemergence, scale 0 to 100
  pest or weed control at 62 g/ha: 85%
[1]; 125 g ai/ha, preemergence, scale 0 to 100
  pest or weed control at 125 g/ha: 98%
[1]; Preemergence, 16 g ai/ha, scale 0 to 100 (0 no effect, 100 complete control)
  pest or weed control at 16 g/ha: 20%
[2]; 31 g ai/ha, preemergence
  pest or weed control at 31 g/ha: 100%
[2]; 62 g ai/ha, preemergence
  pest or weed control at 62 g/ha: 100%
[2]; 125 g ai/ha, preemergence
  pest or weed control at 125 g/ha: 100%
[2]; Preemergence, 16 g ai/ha
  pest or weed control at 16 g/ha: 100%
[3]; 31 g ai/ha, preemergence
  plant injury at 31 g/ha: 0%
[3]; 62 g ai/ha, preemergence
  plant injury at 62 g/ha: 15%
[3]; 125 g ai/ha, preemergence
  plant injury at 125 g/ha: 10%
[3]; Preemergence, 16 g ai/ha
  plant injury at 16 g/ha: 0%
[4]; 31 g ai/ha, preemergence
  pest or weed control at 31 g/ha: 55%
[4]; 62 g ai/ha, preemergence
  pest or weed control at 62 g/ha: 75%
[4]; 125 g ai/ha, preemergence
  pest or weed control at 125 g/ha: 98%
[4]; Preemergence, 16 g ai/ha
  pest or weed control at 16 g/ha: 50%
[5]; 31 g ai/ha, preemergence
  pest or weed control at 31 g/ha: 100%
[5]; 62 g ai/ha, preemergence
  pest or weed control at 62 g/ha: 100%
[5]; 125 g ai/ha, preemergence
  pest or weed control at 125 g/ha: 100%
[5]; Preemergence, 16 g ai/ha
  pest or weed control at 16 g/ha: 100%
[6]; 31 g ai/ha, preemergence
  pest or weed control at 31 g/ha: 45%
[6]; 62 g ai/ha, preemergence
  pest or weed control at 62 g/ha: 70%
[6]; 125 g ai/ha, preemergence
  pest or weed control at 125 g/ha: 80%
[6]; Preemergence, 16 g ai/ha
  pest or weed control at 16 g/ha: 35%
[7]; 31 g ai/ha, preemergence
  pest or weed control at 31 g/ha: 5%
[7]; 62 g ai/ha, preemergence
  pest or weed control at 62 g/ha: 10%
[7]; 125 g ai/ha, preemergence
  pest or weed control at 125 g/ha: 35%
[7]; Preemergence, 16 g ai/ha
  pest or weed control at 16 g/ha: 0%
Corn (Zea mays); 31 g ai/ha, preemergence
  Corn plant response rating (crop injury, 0 = no effect, 100 = complete kill) at 31 g/ha: 5%
Corn (Zea mays); 62 g ai/ha, preemergence
  Corn plant response rating (crop injury, 0 = no effect, 100 = complete kill) at 62 g/ha: 20%
Corn (Zea mays); 125 g ai/ha, preemergence
  Corn plant response rating (crop injury, 0 = no effect, 100 = complete kill) at 125 g/ha: 40%
Corn (Zea mays); Preemergence, 16 g ai/ha
  Corn plant response rating (crop injury, 0 = no effect, 100 = complete kill) at 16 g/ha: 0%
[8]; 31 g ai/ha, preemergence
  pest or weed control at 31 g/ha: 0%
[8]; 62 g ai/ha, preemergence
  pest or weed control at 62 g/ha: 25%
[8]; 125 g ai/ha, preemergence
  pest or weed control at 125 g/ha: 40%
[8]; Preemergence, 16 g ai/ha
  pest or weed control at 16 g/ha: 0%
[9]; 31 g ai/ha, preemergence
  plant injury at 31 g/ha: 90%
[9]; 62 g ai/ha, preemergence
  plant injury at 62 g/ha: 90%
[9]; 125 g ai/ha, preemergence
  plant injury at 125 g/ha: 90%
[9]; Preemergence, 16 g ai/ha
  plant injury at 16 g/ha: 30%
[10]; 31 g ai/ha, preemergence
  pest or weed control at 31 g/ha: 0%
[10]; 62 g ai/ha, preemergence
  pest or weed control at 62 g/ha: 60%
[10]; 125 g ai/ha, preemergence
  pest or weed control at 125 g/ha: 70%
[10]; Preemergence, 16 g ai/ha
  pest or weed control at 16 g/ha: 0%
Soybean (Glycine max); 31 g ai/ha, preemergence
  plant injury at 31 g/ha: 20%
Soybean (Glycine max); 62 g ai/ha, preemergence
  plant injury at 62 g/ha: 45%
Soybean (Glycine max); 125 g ai/ha, preemergence
  plant injury at 125 g/ha: 55%
Soybean (Glycine max); Preemergence, 16 g ai/ha
  plant injury at 16 g/ha: 5%
[11]; 31 g ai/ha, preemergence
  pest or weed control at 31 g/ha: 98%
[11]; 62 g ai/ha, preemergence
  pest or weed control at 62 g/ha: 100%
[11]; 125 g ai/ha, preemergence
  pest or weed control at 125 g/ha: 100%
[11]; Preemergence, 16 g ai/ha
  pest or weed control at 16 g/ha: 70%
[12]; 31 g ai/ha, preemergence
  pest or weed control at 31 g/ha: 20%
[12]; 62 g ai/ha, preemergence
  pest or weed control at 62 g/ha: 60%
[12]; 125 g ai/ha, preemergence
  pest or weed control at 125 g/ha: 90%
[12]; Preemergence, 16 g ai/ha
  pest or weed control at 16 g/ha: 0%
[13]; 31 g ai/ha, preemergence
  pest or weed control at 31 g/ha: 85%
[13]; 62 g ai/ha, preemergence
  pest or weed control at 62 g/ha: 98%
[13]; 125 g ai/ha, preemergence
  pest or weed control at 125 g/ha: 100%
[13]; Preemergence, 16 g ai/ha
  pest or weed control at 16 g/ha: 80%
Wild oat (Avena fatua); 31 g ai/ha
  pest or weed control at 31 g/ha: 0%
Wild oat (Avena fatua); 62 g ai/ha
  pest or weed control at 62 g/ha: 5%
Wild oat (Avena fatua); 125 g ai/ha
  pest or weed control at 125 g/ha: 10%
[14]; 31 g ai/ha
  pest or weed control at 31 g/ha: 80%
[14]; 62 g ai/ha
  pest or weed control at 62 g/ha: 90%
[14]; 125 g ai/ha
  pest or weed control at 125 g/ha: 90%
[15]; 16 g ai/ha
  pest or weed control at 16 g/ha: 50%
[15]; 31 g ai/ha
  pest or weed control at 31 g/ha: 50%
[15]; 62 g ai/ha
  pest or weed control at 62 g/ha: 80%
[15]; 125 g ai/ha
  pest or weed control at 125 g/ha: 95%
[16]; 31 g ai/ha
  pest or weed control at 31 g/ha: 70%
[16]; 62 g ai/ha
  pest or weed control at 62 g/ha: 80%
[16]; 125 g ai/ha
  pest or weed control at 125 g/ha: 90%
Kochia (Kochia scoparia); 16 g ai/ha
  pest or weed control at 16 g/ha: 60%
Kochia (Kochia scoparia); 31 g ai/ha
  pest or weed control at 31 g/ha: 60%
Kochia (Kochia scoparia); 62 g ai/ha
  pest or weed control at 62 g/ha: 90%
Kochia (Kochia scoparia); 125 g ai/ha
  pest or weed control at 125 g/ha: 90%
[17]; 16 g ai/ha
  pest or weed control at 16 g/ha: 80%
[17]; 31 g ai/ha
  pest or weed control at 31 g/ha: 80%
[17]; 62 g ai/ha
  pest or weed control at 62 g/ha: 85%
[17]; 125 g ai/ha
  pest or weed control at 125 g/ha: 85%
[18]; 31 g ai/ha
  pest or weed control at 31 g/ha: 10%
[18]; 62 g ai/ha
  pest or weed control at 62 g/ha: 10%
[18]; 125 g ai/ha
  pest or weed control at 125 g/ha: 10%
